From US4382945A, “Tetrahydrothiepino[4,5-d]imidazole derivatives, composition and method of use” (Hoffmann-La Roche Inc., priority 1980, dated 1983)
Structures can show the parent of a compound that is named as a salt.

Key:
[1] = system: Human platelet-rich plasma (collagen-induced blood platelet aggregation); test: Collagen-induced blood platelet aggregation (aggregometer method of BORN); type: cell-based; conditions: 10 min; human citrated platelet-rich plasma; 37° C., 10 minutes incubation; collagen-fibrils; maximum aggregation velocity as test parameter
Protocol: Human platelet-rich plasma was obtained by centrifugation from citrated venous blood. The experiments were carried out with suspensions of the test substances in 0.9% sodium chloride. 0.18 ml of citrate plasma were treated with a 10 μl suspension of the test compounds and incubated at 37° C. for 10 minutes, whereupon the aggregation was initiated by the addition of 10 μl of a suspension of collagen-fibrils.

Plasma glucose = test: Antihyperglycemic activity: plasma glucose concentration after oral glucose load in fasted rats; type: in vivo; conditions: percentages of the controls, rats fasted 24 hours, 0.3 mmol/kg p.o., glucose 1.6 g/kg orally 100 minutes later, plasma 20 minutes after glucose, averages
Protocol: Gum arabic (12 control animals) or 0.3 mmol/kg p.o. of test substance (6 experimental animals) is administered to rats (fasted for 24 hours) and 100 minutes later a suspension of 1.6 g of glucose in 10 ml of 5 percent gum arabic is administered orally per kg body weight. The animals are killed 20 minutes after the glucose administration. Plasma is obtained from the heparinized mixed blood. The glucose concentration in the plasma is determined according to the hexokinase method.

Structure (SMILES) | EC50 [1] | Plasma glucose concentration (%) (Plasma glucose) | Plasma glucose concentration (%) (Plasma glucose; listed as 2-Phenyl-4,5,7,8-tetrahydro-4,4,8,8-tetramethyl-1-H-thiepino-8 4,5-d]-imidazole , hydrochloride)
CC1(C)CSCC(C)(C)c2[nH]c(-c3ccc(F)cc3)nc21 [2-(p-Fluorophenyl)-4,5,7,8-tetrahydro-4,4,8,8-tetramethyl-1-H-thiepino-[4,5-d]imidazole hydrochloride] | 4.7 µM | 77% | 
COc1ccc(-c2nc3c([nH]2)C(C)(C)CSCC3(C)C)cc1 [2-(p-Methoxyphenyl)-4,5,7,8-tetrahydro-4,4,8,8-tetramethyl-1-H-thiepino-[4,5-d]imidazole hydrochloride] | 4.2 µM |  | 
CC1(C)CSCC(C)(C)c2[nH]c(-c3ccccc3)nc21 [2-phenyl-4,5,7,8-tetrahydro-4,4,8,8-tetramethyl-1-H-thiepino[4,5-d]imidazole] |  | 74% | 
CC1(C)CSCC(C)(C)c2[nH]c(-c3cccs3)nc21 [4,5,7,8-Tetrahydro-4,4,8,8-tetramethyl-2-(2-thienyl)-1-H-thiepino[4,5-d]-imidazole hydrochloride] | 19.7 µM |  | 

Now from value to molecule, other results behind:

EC50 [1] | Structure (SMILES) | Plasma glucose concentration (%) (Plasma glucose) | Plasma glucose concentration (%) (Plasma glucose; listed as 2-Phenyl-4,5,7,8-tetrahydro-4,4,8,8-tetramethyl-1-H-thiepino-8 4,5-d]-imidazole , hydrochloride)
1.2 µM | CC1(C)CSCC(C)(C)c2[nH]c(-c3ccc4c(c3)OCO4)nc21 [2-(3,4-Methylenedioxyphenyl)-4,5,7,8-tetrahydro-4,4,8,8-tetramethyl-1-H-thiepino[4,5-d]imidazole hydrochloride] |  | 
0.8 µM | CC1(C)CSCC(C)(C)c2[nH]c(-c3ccccc3)nc21 [2-Phenyl-4,5,7,8-tetrahydro-4,4,8,8-tetramethyl-1-H-thiepino[4,5-d]-imidazole hydrochloride] |  | 67%
